{"source": "the NIST ThermoML archive (doi:10.1016/j.jct.2013.02.023)", "assay": "molar heat capacity at constant pressure", "conditions": "101.33 kPa, Crystal 1, relaxation calorimetry - Quantum Design PPMS", "note": "± gives the expanded uncertainty stated by the source.", "data": [{"compound": "O=P([O-])([O-])OP(=O)([O-])[O-].O=P([O-])([O-])OP(=O)([O-])[O-].O=P([O-])([O-])OP(=O)([O-])[O-].[Fe+3].[Fe+3].[Fe+3].[Fe+3]", "note": "[iron(III) diphosphate]", "values": [{"measurement": "molar heat capacity at constant pressure", "setting": "66.42 K", "value": "124.93 ± 2.5", "unit": "J/K/mol"}, {"measurement": "molar heat capacity at constant pressure", "setting": "67.44 K", "value": "127.27 ± 2.5", "unit": "J/K/mol"}, {"measurement": "molar heat capacity at constant pressure", "setting": "68.45 K", "value": "129.47 ± 2.6", "unit": "J/K/mol"}, {"measurement": "molar heat capacity at constant pressure", "setting": "69.47 K", "value": "131.89 ± 2.6", "unit": "J/K/mol"}, {"measurement": "molar heat capacity at constant pressure", "setting": "70 K", "value": "133.03 ± 2.9", "unit": "J/K/mol"}, {"measurement": "molar heat capacity at constant pressure", "setting": "70.48 K", "value": "134.15 ± 2.7", "unit": "J/K/mol"}, {"measurement": "molar heat capacity at constant pressure", "setting": "71.49 K", "value": "136.51 ± 2.7", "unit": "J/K/mol"}, {"measurement": "molar heat capacity at constant pressure", "setting": "72.5 K", "value": "138.68 ± 2.8", "unit": "J/K/mol"}, {"measurement": "molar heat capacity at constant pressure", "setting": "73.5 K", "value": "141.06 ± 2.8", "unit": "J/K/mol"}, {"measurement": "molar heat capacity at constant pressure", "setting": "73.58 K", "value": "141.14 ± 2.8", "unit": "J/K/mol"}, {"measurement": "molar heat capacity at constant pressure", "setting": "74.51 K", "value": "143.36 ± 2.9", "unit": "J/K/mol"}, {"measurement": "molar heat capacity at constant pressure", "setting": "75 K", "value": "144.64 ± 3.2", "unit": "J/K/mol"}, {"measurement": "molar heat capacity at constant pressure", "setting": "75.53 K", "value": "145.73 ± 2.9", "unit": "J/K/mol"}, {"measurement": "molar heat capacity at constant pressure", "setting": "76.55 K", "value": "148.3 ± 3", "unit": "J/K/mol"}, {"measurement": "molar heat capacity at constant pressure", "setting": "77.56 K", "value": "150.74 ± 3", "unit": "J/K/mol"}, {"measurement": "molar heat capacity at constant pressure", "setting": "78.57 K", "value": "153.39 ± 3.1", "unit": "J/K/mol"}, {"measurement": "molar heat capacity at constant pressure", "setting": "79.58 K", "value": "155.6 ± 3.1", "unit": "J/K/mol"}, {"measurement": "molar heat capacity at constant pressure", "setting": "80 K", "value": "156.55 ± 3.4", "unit": "J/K/mol"}, {"measurement": "molar heat capacity at constant pressure", "setting": "80.59 K", "value": "158.26 ± 3.2", "unit": "J/K/mol"}, {"measurement": "molar heat capacity at constant pressure", "setting": "81.7 K", "value": "160.54 ± 3.2", "unit": "J/K/mol"}, {"measurement": "molar heat capacity at constant pressure", "setting": "85 K", "value": "168.61 ± 3.7", "unit": "J/K/mol"}, {"measurement": "molar heat capacity at constant pressure", "setting": "90 K", "value": "180.67 ± 4", "unit": "J/K/mol"}, {"measurement": "molar heat capacity at constant pressure", "setting": "90.71 K", "value": "182.62 ± 3.6", "unit": "J/K/mol"}, {"measurement": "molar heat capacity at constant pressure", "setting": "95 K", "value": "193.23 ± 4.2", "unit": "J/K/mol"}, {"measurement": "molar heat capacity at constant pressure", "setting": "100 K", "value": "205.34 ± 4.5", "unit": "J/K/mol"}, {"measurement": "molar heat capacity at constant pressure", "setting": "100.7 K", "value": "205.22 ± 4.1", "unit": "J/K/mol"}, {"measurement": "molar heat capacity at constant pressure", "setting": "110 K", "value": "227.92 ± 5", "unit": "J/K/mol"}, {"measurement": "molar heat capacity at constant pressure", "setting": "110.85 K", "value": "227.84 ± 4.6", "unit": "J/K/mol"}, {"measurement": "molar heat capacity at constant pressure", "setting": "120 K", "value": "248.76 ± 5.5", "unit": "J/K/mol"}, {"measurement": "molar heat capacity at constant pressure", "setting": "120.85 K", "value": "248.93 ± 5", "unit": "J/K/mol"}, {"measurement": "molar heat capacity at constant pressure", "setting": "130 K", "value": "268.26 ± 5.9", "unit": "J/K/mol"}, {"measurement": "molar heat capacity at constant pressure", "setting": "130.93 K", "value": "269.49 ± 5.4", "unit": "J/K/mol"}, {"measurement": "molar heat capacity at constant pressure", "setting": "140 K", "value": "286.79 ± 6.3", "unit": "J/K/mol"}, {"measurement": "molar heat capacity at constant pressure", "setting": "141.05 K", "value": "288.92 ± 5.8", "unit": "J/K/mol"}, {"measurement": "molar heat capacity at constant pressure", "setting": "150 K", "value": "304.56 ± 6.7", "unit": "J/K/mol"}, {"measurement": "molar heat capacity at constant pressure", "setting": "151.1 K", "value": "307 ± 6.1", "unit": "J/K/mol"}, {"measurement": "molar heat capacity at constant pressure", "setting": "160 K", "value": "321.72 ± 7.1", "unit": "J/K/mol"}, {"measurement": "molar heat capacity at constant pressure", "setting": "161.21 K", "value": "324.93 ± 6.5", "unit": "J/K/mol"}, {"measurement": "molar heat capacity at constant pressure", "setting": "170 K", "value": "338.34 ± 7.4", "unit": "J/K/mol"}, {"measurement": "molar heat capacity at constant pressure", "setting": "171.22 K", "value": "342.32 ± 6.8", "unit": "J/K/mol"}, {"measurement": "molar heat capacity at constant pressure", "setting": "180 K", "value": "354.45 ± 7.8", "unit": "J/K/mol"}, {"measurement": "molar heat capacity at constant pressure", "setting": "181.32 K", "value": "357.51 ± 7.2", "unit": "J/K/mol"}, {"measurement": "molar heat capacity at constant pressure", "setting": "190 K", "value": "370.05 ± 8.1", "unit": "J/K/mol"}, {"measurement": "molar heat capacity at constant pressure", "setting": "191.45 K", "value": "374.2 ± 7.5", "unit": "J/K/mol"}, {"measurement": "molar heat capacity at constant pressure", "setting": "200 K", "value": "385.13 ± 8.5", "unit": "J/K/mol"}, {"measurement": "molar heat capacity at constant pressure", "setting": "201.57 K", "value": "387.79 ± 7.8", "unit": "J/K/mol"}, {"measurement": "molar heat capacity at constant pressure", "setting": "210 K", "value": "399.67 ± 8.8", "unit": "J/K/mol"}, {"measurement": "molar heat capacity at constant pressure", "setting": "211.7 K", "value": "401.38 ± 8", "unit": "J/K/mol"}, {"measurement": "molar heat capacity at constant pressure", "setting": "220 K", "value": "413.65 ± 9.1", "unit": "J/K/mol"}, {"measurement": "molar heat capacity at constant pressure", "setting": "221.82 K", "value": "416.43 ± 8.3", "unit": "J/K/mol"}, {"measurement": "molar heat capacity at constant pressure", "setting": "230 K", "value": "427.07 ± 9.4", "unit": "J/K/mol"}, {"measurement": "molar heat capacity at constant pressure", "setting": "231.97 K", "value": "429 ± 8.6", "unit": "J/K/mol"}, {"measurement": "molar heat capacity at constant pressure", "setting": "240 K", "value": "439.91 ± 9.7", "unit": "J/K/mol"}, {"measurement": "molar heat capacity at constant pressure", "setting": "242.05 K", "value": "440.09 ± 8.8", "unit": "J/K/mol"}, {"measurement": "molar heat capacity at constant pressure", "setting": "250 K", "value": "452.18 ± 9.9", "unit": "J/K/mol"}, {"measurement": "molar heat capacity at constant pressure", "setting": "252.07 K", "value": "452.65 ± 9.1", "unit": "J/K/mol"}, {"measurement": "molar heat capacity at constant pressure", "setting": "260 K", "value": "463.87 ± 10", "unit": "J/K/mol"}, {"measurement": "molar heat capacity at constant pressure", "setting": "262.14 K", "value": "465.23 ± 9.3", "unit": "J/K/mol"}, {"measurement": "molar heat capacity at constant pressure", "setting": "270 K", "value": "475 ± 10", "unit": "J/K/mol"}, {"measurement": "molar heat capacity at constant pressure", "setting": "272.29 K", "value": "475.97 ± 9.5", "unit": "J/K/mol"}, {"measurement": "molar heat capacity at constant pressure", "setting": "273.15 K", "value": "478.39 ± 11", "unit": "J/K/mol"}, {"measurement": "molar heat capacity at constant pressure", "setting": "280 K", "value": "485.58 ± 11", "unit": "J/K/mol"}, {"measurement": "molar heat capacity at constant pressure", "setting": "282.37 K", "value": "488.57 ± 9.8", "unit": "J/K/mol"}, {"measurement": "molar heat capacity at constant pressure", "setting": "290 K", "value": "495.63 ± 11", "unit": "J/K/mol"}, {"measurement": "molar heat capacity at constant pressure", "setting": "292.36 K", "value": "498.4 ± 10", "unit": "J/K/mol"}, {"measurement": "molar heat capacity at constant pressure", "setting": "298.15 K", "value": "503.44 ± 11", "unit": "J/K/mol"}, {"measurement": "molar heat capacity at constant pressure", "setting": "300 K", "value": "505.16 ± 11", "unit": "J/K/mol"}, {"measurement": "molar heat capacity at constant pressure", "setting": "302.55 K", "value": "510.46 ± 10", "unit": "J/K/mol"}]}]}
